# Values quoted from earlier work as cited in patent publication US10563162B2, “Microbial electro-photosynthesis” (Arizona Board of Regents on behalf of Arizona State …, priority 2014, dated 2020).
# Conditions: listed property of redox mediator / natural electron acceptor; no method given
Compound,"midpoint potential (E^0,) [mV]",number of electrons transported (# e−)
O=C1C=CC(=O)C=C1 [Benzoquinone],280,2
CC1=C(C)C(=O)C(C)=C(C)C1=O [Duroquinone],5,2
CN(C)c1ccc2nc3ccc(=[N+](C)C)cc-3sc2c1 [Methylene Blue],11,2
CC(C)=CCC/C(C)=C/CC/C(C)=C/CC/C(C)=C/CC/C(C)=C/CC/C(C)=C/CC/C(C)=C/CC/C(C)=C/CC/C(C)=C/CC1=CC(=O)C(C)=C(C)C1=O [Plastoquinone],80,2
Thionine,64,2
